Reference: the supplement of paper PMC10331698
± gives the standard deviation of the averaged measurements.

Columns and labels:
Assay in all cases: level (log10 ratio to DMSO vehicle control); higher = higher biomarker level / cell amount than vehicle control
[1] = compound: O=C(O)C=C(C(F)(F)F)C(F)(F)F [3,3-Bis(trifluoromethyl)-2-propenoic acid] (in DMSO)
Procedure: (§1)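 BioMAP Diversity Plus panel of 12 human primary cell co-culture systems (3C, 4H, LPS, SAg, BT, BF4T, BE3C, CASM3C, HDF3CGF, KF3CT, MyoF, Mphg). Compounds were added 1 h before stimulation and left for 24 h (MyoF 48 h; BT 72 h for soluble read-outs or 6 d for IgG). Biomarkers were read by ELISA, cytotoxicity by SRB, PBMC viability and proliferation by Alamar Blue. Each well value was divided by the mean of 8 DMSO control wells on the same plate and log10 transformed; duplicate blinded samples were tested at 4 concentrations.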

[2] = compound: O=S(=O)(O)CCC(F)(F)C(F)(F)C(F)(F)C(F)(F)C(F)(F)C(F)(F)C(F)(F)C(F)(F)F [8:2 Fluorotelomer sulfonic acid] (in DMSO)
Procedure: as §1

[3] = compound: CCOC(=O)CC(=O)C(F)(F)C(F)(F)F [Ethyl pentafluoropropionyl acetate] (in DMSO)
Procedure: as §1

[4] = compound: OCC(F)(F)C(F)(F)C(F)(F)C(F)F [1H,1H,5H-Perfluoropentanol] (in DMSO)
Procedure: as §1

[5] = compound: OCC(F)(F)C(F)(F)C(F)(F)C(F)(F)C(F)(F)C(F)(F)CO [1H,1H,8H,8H-Perfluorooctane-1,8-diol] (in DMSO)
Procedure: as §1

Perfluoroundecanoic acid = compound: O=C(O)C(F)(F)C(F)(F)C(F)(F)C(F)(F)C(F)(F)C(F)(F)C(F)(F)C(F)(F)C(F)(F)C(F)(F)F [Perfluoroundecanoic acid] (in DMSO); conditions: 6700 nM
Procedure: as §1

[6] = compound: O=C(O)CCC(F)(C(F)(F)F)C(F)(F)F [4,4-bis(Trifluoromethyl)-4-fluoropropanoic acid] (in DMSO)
Procedure: as §1

Row | Test System | level (log10) ([1]; 6700 nM) | level (log10) ([1]; 20000 nM) | level (log10) ([1]; 60000 nM) | level (log10) ([2]; 6700 nM) | level (log10) ([2]; 20000 nM) | level (log10) ([2]; 60000 nM) | level (log10) ([3]; 6700 nM) | level (log10) ([3]; 20000 nM) | level (log10) ([3]; 60000 nM) | level (log10) ([4]; 6700 nM) | level (log10) ([4]; 20000 nM) | level (log10) ([4]; 60000 nM) | level (log10) ([5]; 6700 nM) | level (log10) ([5]; 20000 nM) | level (log10) ([5]; 60000 nM) | level (log10) (Perfluoroundecanoic acid) | level (log10) ([6]; 6700 nM) | level (log10) ([6]; 20000 nM) | level (log10) ([6]; 60000 nM)
1 | CASM3C:CCL2/MCP-1 | -0.03 ± 0.0028 | -0.0425 ± 0.00071 | -0.0465 ± 0.022 | -0.0095 ± 0.00071 | -0.003 ± 0.0057 | 0.016 ± 0.04 | -0.001 ± 0.0028 | 0.003 ± 0.0057 | 0.009 ± 0.027 | -0.0115 ± 0.012 | -0.0105 ± 0.013 | -0.0015 ± 0.011 | -0.0175 ± 0.011 | -0.024 ± 0.0057 | 0.0015 ± 0.019 | 0.0065 ± 0.015 | -0.016 ± 0.013 | -0.016 ± 0.0085 | 0.0165 ± 0.039
2 | 3C:CCL2/MCP-1 | 0.001 ± 0.011 | -0.0065 ± 0.0064 | 0.0015 ± 0.037 | -0.01 ± 0.0085 | -0.0335 ± 0.021 | -0.0185 ± 0.005 | -0.012 ± 0.0042 | -0.0185 ± 0.0035 | 0.002 ± 0.0085 | -0.0055 ± 0.015 | 0.03 ± 0.024 | 0.042 ± 0.045 | -0.006 ± 0.0014 | -0.0175 ± 0.0092 | 0.002 ± 0.027 | 0.009 ± 0.0042 | 0.0005 ± 0.0092 | 0.0035 ± 0.012 | 0.0015 ± 0.0021
3 | MyoF:Collagen III | -0.021 ± 0.0014 | -0.0335 ± 0.00071 | -0.064 ± 0.011 | -0.008 ± 0.017 | -0.04 ± 0.031 | -0.0355 ± 0.023 | -0.0045 ± 0.016 | -0.0045 ± 0.011 | -0.009 ± 0.0042 | -0.0005 ± 0.0092 | 0.0295 ± 0.015 | 0.037 ± 0.045 | -0.008 ± 0.013 | -0.016 | -0.005 ± 0.0028 | -0.3895 ± 0.00071 | -0.0045 ± 0.011 | -0.0205 ± 0.021 | 0.003 ± 0.02
4 | CASM3C:IL-6 | -0.097 ± 0.045 | -0.148 ± 0.0071 | -0.189 ± 0.026 | 0.0025 ± 0.029 | -0.0075 ± 0.0064 | -0.0005 ± 0.018 | -0.022 ± 0.011 | -0.021 ± 0.023 | 0.009 ± 0.057 | 0.001 ± 0.041 | -0.0005 ± 0.021 | 0.0255 ± 0.036 | -0.014 ± 0.0014 | -0.02 ± 0.0099 | -0.0005 ± 0.04 | 0.0025 ± 0.0092 | -0.02 ± 0.0014 | -0.0225 ± 0.005 | 0.009 ± 0.061
5 | BE3C:uPA | -0.0205 ± 0.011 | -0.015 ± 0.0099 | -0.0045 ± 0.018 | 0.006 ± 0.0071 | 0.0055 ± 0.0035 | -0.002 ± 0.0028 | -0.0105 ± 0.013 | -0.011 ± 0.013 | -0.0195 ± 0.0035 | -0.0105 ± 0.016 | 0.001 ± 0.011 | 0.002 ± 0.041 | -0.012 ± 0.0071 | -0.0125 ± 0.005 | -0.009 ± 0.024 | 0.0255 ± 0.00071 | -0.01 ± 0.038 | -0.021 ± 0.031 | -0.0355 ± 0.052
6 | MyoF:PAI-I | -0.005 ± 0.0042 | 0.0045 ± 0.0064 | 0.005 ± 0.02 | -0.008 ± 0.011 | -0.009 ± 0.0042 | 0.0185 ± 0.019 | -0.0005 ± 0.021 | 0.006 ± 0.017 | 0.0055 ± 0.015 | -0.0265 ± 0.0078 | -0.018 ± 0.031 | -0.0045 ± 0.0021 | -0.0015 ± 0.0064 | -0.004 ± 0.0028 | 0.0005 ± 0.011 | -0.01 ± 0.018 | -0.005 ± 0.0057 | -0.007 ± 0.0042 | -0.006 ± 0.0099
7 | MyoF:Collagen IV | -0.0215 ± 0.029 | -0.055 ± 0.025 | -0.0345 ± 0.028 | -0.0215 ± 0.019 | -0.0335 ± 0.036 | 0.005 ± 0.0099 | 0.0045 ± 0.018 | 0.01 ± 0.0028 | 0.0045 ± 0.018 | -0.001 ± 0.0014 | -0.0005 ± 0.0064 | 0.0095 ± 0.00071 | -0.014 ± 0.0057 | -0.0115 ± 0.005 | -0.011 ± 0.042 | 0.57 ± 0.013 | -0.0105 ± 0.025 | -0.0185 ± 0.023 | 0.0035 ± 0.00071
8 | lMphg:CXCL8/IL-8 | 0.081 ± 0.016 | 0.123 ± 0.014 | 0.201 ± 0.047 | 0.001 ± 0.0085 | 0.022 ± 0.013 | 0.0775 ± 0.0035 | -0.0295 ± 0.023 | -0.01 ± 0.0042 | 0.0095 ± 0.049 | 0.018 ± 0.017 | -0.0005 ± 0.019 | 0.035 ± 0.0028 | -0.0085 ± 0.074 | -0.03 ± 0.028 | 0.011 ± 0.034 | 0.01 ± 0.013 | 0.017 ± 0.059 | 0.032 ± 0.024 | 0.01 ± 0.076
9 | MyoF:SRB | 0.0005 ± 0.012 | -0.005 ± 0.0014 | -0.024 ± 0.0071 | -0.0005 ± 0.0021 | -0.009 ± 0.0014 | -0.0035 ± 0.0035 | -0.001 ± 0.0028 | -0.0065 ± 0.00071 | -0.0045 ± 0.00071 | -0.0025 ± 0.0078 | -0.004 ± 0.016 | 0.002 ± 0.0071 | -0.0095 ± 0.012 | -0.0145 ± 0.0064 | -0.0305 ± 0.0021 | -0.029 ± 0.014 | -0.004 ± 0.0028 | -0.003 ± 0.0014 | 0.0025 ± 0.0021
10 | 3C:CD142/Tissue Factor | 0.0445 ± 0.018 | -0.022 ± 0.037 | -0.138 ± 0.052 | -0.018 ± 0.065 | 0.001 ± 0.052 | -0.0295 ± 0.046 | -0.006 ± 0.0071 | -0.019 ± 0.031 | -0.033 | -0.0095 ± 0.00071 | -0.014 ± 0.025 | 0.021 ± 0.0085 | -0.0245 ± 0.026 | 0.0195 ± 0.026 | 0.0425 ± 0.012 | -0.008 ± 0.016 | 0.024 ± 0.0099 | 0.0115 ± 0.0078 | -0.002 ± 0.023
11 | CASM3C:CD142/Tissue Factor | 0.055 ± 0.018 | -0.009 ± 0.041 | -0.0635 ± 0.06 | -0.045 ± 0.0042 | -0.067 ± 0.027 | -0.0195 ± 0.03 | -0.0235 ± 0.046 | -0.008 ± 0.031 | 0.0035 ± 0.012 | -0.0605 ± 0.044 | -0.0695 ± 0.035 | -0.0195 ± 0.094 | 0 ± 0.014 | 0 ± 0.023 | 0.012 ± 0.041 | -0.066 ± 0.041 | -0.0325 ± 0.047 | -0.011 | 0.0385 ± 0.049
12 | CASM3C:CD87/uPAR | -0.0235 ± 0.023 | -0.029 ± 0.031 | -0.031 ± 0.023 | 0.025 ± 0.0099 | 0.022 ± 0.0014 | -0.0055 ± 0.016 | 0.0015 ± 0.028 | -0.013 ± 0.0057 | -0.01 ± 0.017 | 0.0065 ± 0.021 | 0.025 ± 0.017 | 0.005 ± 0.021 | 0.0025 ± 0.0021 | -0.0325 ± 0.0092 | -0.036 ± 0.038 | -0.0285 ± 0.0078 | 0.027 ± 0.0028 | 0.0265 ± 0.013 | 0.03 ± 0.024
13 | KF3CT:MMP-9 | -0.029 ± 0.025 | -0.031 ± 0.041 | -0.078 ± 0.028 | -0.009 ± 0.0014 | 0.0165 ± 0.0078 | -0.0335 ± 0.018 | -0.0165 ± 0.013 | -0.0005 ± 0.012 | -0.011 ± 0.0099 | -0.024 ± 0.045 | -0.008 ± 0.0071 | 0.0125 ± 0.04 | -0.003 ± 0.0028 | 0.009 ± 0.0014 | 0.058 ± 0.0099 | -0.172 ± 0.027 | -0.026 ± 0.025 | -0.0195 ± 0.019 | -0.008 ± 0.0085
14 | HDF3CGF:M-CSF | -0.0595 ± 0.0078 | -0.072 ± 0.042 | -0.051 ± 0.014 | -0.0035 ± 0.056 | -0.014 ± 0.038 | -0.0685 ± 0.04 | -0.022 ± 0.017 | -0.034 ± 0.037 | -0.0135 ± 0.094 | -0.0405 ± 0.067 | -0.034 ± 0.071 | -0.0205 ± 0.053 | 0.0115 ± 0.029 | 0.015 ± 0.0085 | 0.0535 ± 0.054 | -0.0425 ± 0.015 | -0.0205 ± 0.081 | -0.0565 ± 0.13 | -0.0735 ± 0.15
15 | MyoF:MMP-1 | -0.0075 ± 0.0092 | -0.0445 ± 0.0078 | -0.0085 ± 0.093 | -0.0245 ± 0.043 | -0.0365 ± 0.028 | 0.0175 ± 0.005 | -0.0245 ± 0.03 | -0.0125 ± 0.011 | 0.034 ± 0.058 | -0.054 ± 0.028 | -0.01 ± 0.052 | 0.093 ± 0.13 | -0.02 ± 0.031 | -0.0145 ± 0.022 | 0.028 ± 0.12 | -0.036 ± 0.018 | 0.0125 ± 0.013 | -0.0265 ± 0.00071 | 0 ± 0.011
